According to PubChem BioAssay (NCI):
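Each compound was tested at five concentrations against cells in 96-well plates for 48 hours. TGI: concentration producing complete growth inhibition.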

Columns and labels:
Test in all cases: NCI anticancer screen, dose series, 48 h
[1] = system: 786-0 renal
[2] = system: A498 renal
[3] = system: A549 NSCLC
[4] = system: ACHN renal
[5] = system: BT-549 breast
[6] = system: CAKI-1 renal
[7] = system: CCRF-CEM leukemia
[8] = system: COLO 205 colon
[9] = system: DU-145 prostate
[10] = system: EKVX NSCLC
[11] = system: HCC-2998 colon
[12] = system: HCT-116 colon
[13] = system: HCT-15 colon
[14] = system: HL-60(TB) leukemia
[15] = system: HOP-62 NSCLC
[16] = system: HOP-92 NSCLC
[17] = system: HS 578T breast
[18] = system: HT29 colon
[19] = system: IGROV1 ovarian
[20] = system: K-562 leukemia
[21] = system: KM12 colon
[22] = system: LOX IMVI melanoma
[23] = system: M14 melanoma
[24] = system: MALME-3M melanoma
[25] = system: MCF7 breast
[26] = system: MDA-MB-231 breast
[27] = system: MDA-MB-435
[28] = system: MDA-N
[29] = system: MOLT-4 leukemia
[30] = system: NCI-H23 lung
[31] = system: NCI-H460 lung
[32] = system: NCI-H522 lung
[33] = system: NCI/ADR-RES ovarian
[34] = system: OVCAR-3 ovarian
[35] = system: OVCAR-4 ovarian
[36] = system: OVCAR-5 ovarian
[37] = system: OVCAR-8 ovarian
[38] = system: PC-3 prostate
[39] = system: RPMI-8226 leukemia
[40] = system: RXF 393 renal
[41] = system: SF-268 CNS
[42] = system: SF-539 CNS
[43] = system: SK-MEL-2 melanoma
[44] = system: SK-MEL-28 melanoma
[45] = system: SK-MEL-5 melanoma
[46] = system: SK-OV-3 ovarian
[47] = system: SN12C renal
[48] = system: SNB-19 CNS
[49] = system: SNB-75 CNS
[50] = system: SR leukemia
[51] = system: SW-620 colon
[52] = system: T-47D breast
[53] = system: TK-10 renal
[54] = system: U251 CNS
[55] = system: UACC-257 melanoma
[56] = system: UACC-62 melanoma
[57] = system: UO-31 renal
[58] = system: NCI-H226 lung
[59] = system: SF-295 CNS

Measured: TGI

CSc1cc(Cl)c(C(=O)Nc2ccccc2)cc1S(=O)(=O)n1cc[nH]c1=O
not listed: [58] | [59]
> 100 µM: all other assays above

O=c1oc2cc(O)ccc2cc1-c1nc2ccccc2o1
80.2 µM: [57]
56.1 µM: [32]
31.2 µM: [52]
75.8 µM: [39]
35.5 µM: [40]
93 µM: [21]
84.7 µM: [2]
40.8 µM: [45]
78.3 µM: [16]
61.8 µM: [34]
70.6 µM: [14]
54 µM: [5]
93.5 µM: [54]
80.3 µM: [8]
not listed: [46]
> 100 µM: all other assays above
